Assay results from patent publication US20140088006A1, “Stem Cell Mobilization and Tissue Repair and Regeneration” (Wellstat Therapeutics Corporation, priority 2011, published 2014).
“And” between values parts separate entries of the source, which are not always exact repeats. Equal entries are not always repeated. “Also recorded” adds a separate entry of the source. No end group written: not given here.

How the values were obtained:
[1] = tested on: human umbilical cord blood CD34+ cells; test: Transwell migration of CD34+ cells toward SDF-1α; assay type: cell-based
Method: CD34^+ cell migration toward 100 ng/mL SDF-1α in a Corning Transwell device (24 well format, 5 μm pore size, polycarbonate membrane) was studied with and without Compound X and in the presence or absence of either anti-CXCR4 antibody or the CXCR4 antagonist AMD3100.
The CD34^+ population of cells from human umbilical cord blood was obtained from Lonza, defrosted and expanded ex vivo with cytokine cocktail for 6 days according to standard procedures. Briefly, 10 wells of two 12 well dishes were seeded at a density of 8×10^4 cells per well in 2 mL of CellGenix serum free growth medium (SCGM). Cells were allowed to expand in a 37° C. incubator (5% CO2, 86% RH) for 6 days. During the expansion, the 10 wells of one of the two plates received treatments of Compound X to a final concentration of 5 ng/mL (10 μL from freshly prepared 1 μg/mL stock in SCGM) at 24 hours and 72 hours after initiation of the culture.
3 hours prior to the start of the migration assay, both control and Compound X expanded cells were pulsed with either 0, 5 ng/mL or 5 μg/mL Compound X. Migration assay was performed according to the method described (Tavor et al. 2005). Cells were centrifuged for 5 minutes at 1100 RPM and resuspended at a density of 2×10^6 cells/mL in CellGenix SCGM serum free medium containing 1% Fraction V BSA either in the presence or absence of 5 ng/mL or 5 μg/mL Compound X for 3 hours. The feeder tray (bottom) was prepared with 600 μL of serum free SCGM supplemented with 1% BSA in the presence or absence of SDF-1α. All treatments were conducted in triplicate. The wells of the migration chamber (top) received 100 μL of cells from the 2×10^6 cells/mL suspensions, preincubated with 5 ng/mL or 5 μg/mL Compound X or Control. All treatments were conducted in triplicates. The plates were placed in a 37° C. incubator (5% CO2, 86% RH) and cells were allowed to migrate for 4 hours. […]
The cells were thawed at room temperature. […] 150 μL of the resulting cell lysates were transferred to a new 96 well plate and the fluorescence was read on a […] SpectraMax M2 fluorimeter (ex 485, em 538). […]

[2] = tested on: CFU-GEMM progenitor cells; test: Mobilization of CFU-GEMM in diabetic db/db mice; assay type: in vivo
peripheral blood cells = test: FACS phenotype of peripheral blood cells after single subcutaneous injection; assay type: in vivo, C57Bl6 mice; settings: for Phenotype Lin−/Sca-1+ / Phenotype Lin−/Sca-1−: mononuclear cells; for Phenotype CD19+ / Phenotype Gr-1 High / Phenotype Gr-1 Low: individual mice
Method: C57Bl6 male mice, from 8 weeks to 4 month of age, from Harlan were used. […] 20 μl of blood was removed from each tube for WBC counts;
200 μl of blood was used for FACS analysis of cells phenotypes: briefly 50 μl of blood was transferred to a 15 ml polypropylene tube containing 1 ml ACK lysis buffer and the tubes left at room temperature for 6 minutes. 50 μl of a 1:50 dilution of Fc block (Pharmingen 01241A) along with 2 ul of anti-CD19FITC (Pharmingen 09654A) and 2 μl of anti-Gr-1PE (Pharmingen 01215A) was added and the tubes left at room temperature for 30 minutes protected from light. The cells were washed with 3 ml FACS buffer, resuspended in 300 μl FACS buffer and kept on ice, protected from light until acquired on the FACSCalibur.
For flow cytometry analysis the blood was stained with antibodies and a phenotype determined by FACS as described before. In addition to the whole blood FACS phenotyping, Ficolled blood was also stained to monitor the Lin−/Sca+ phenotype. The cells were washed with 3 ml FACS buffer, resuspended in 300 μl FACS buffer and kept on ice, protected from light until acquired on the FACSCalibur

For “FPHFDLSHGSAQV [Compound X, tridecapeptide that acts on stem cells]”, the “interference with the effect of AMD3100 or anti CXCR4 antibody on migration” value ([1]; 5 ng/mL Compound X) was “did not interfere”, the “CD34+ cell Transwell migration toward SDF-1α” value ([1]; cells expanded with 5 ng/mL and/or pulsed 3 hours with Compound X, 100 ng/mL SDF-1α, 4 hours) was “no significant difference; also recorded: had no effect” and the “increase of CFU-GEMM number in peripheral blood vs Vehicle or 250 ug/kg” value ([2]; intravenous 5 mg/kg, one-hour post injection) was over 3 times. For the same sequence, the “mobilization of progenitor cells into the peripheral blood” value ([2]; subcutaneous, doses as high as 5 mg/kg) was “failed to mobilize”, the “Phenotype Lin−/Sca-1+” value (peripheral blood cells; 50 μg/kg, 1-hour) was 0.4% and the “Phenotype Lin−/Sca-1−” value (peripheral blood cells; 50 μg/kg, 1-hour) was 0.8%. For the same sequence, the “Phenotype Lin−/Sca-1+” value (peripheral blood cells; 50 μg/kg, 30-min) was 0.5%, the “Phenotype Lin−/Sca-1−” value (peripheral blood cells; 50 μg/kg, 30-min) was 1.0% and the “Phenotype Lin−/Sca-1+” value (peripheral blood cells; 250 μg/kg, 1-hour) was 0.8%. For the same sequence, the “Phenotype Lin−/Sca-1−” value (peripheral blood cells; 250 μg/kg, 1-hour) was 1.1%, the “Phenotype Lin−/Sca-1+” value (peripheral blood cells; 250 μg/kg, 30-min) was 0.6% and the “Phenotype Lin−/Sca-1−” value (peripheral blood cells; 250 μg/kg, 30-min) was 1.1%. For the same sequence, the “Phenotype CD19+” value (peripheral blood cells; s.c. 50 μg/kg, 1 hr) was 38.3% and 41.0% and 29.6%, the “Phenotype Gr-1 High” value (peripheral blood cells; s.c. 50 μg/kg, 1 hr) was 26.0% and 27.7% and 29.4% and the “Phenotype Gr-1 Low” value (peripheral blood cells; s.c. 50 μg/kg, 1 hr) was 3.5% (2×) and 7.0%. The “Phenotype CD19+” value (peripheral blood cells; s.c. 50 μg/kg, 4 hr) was 33.9% and 40.9% and 29.1%, the “Phenotype Gr-1 High” value (peripheral blood cells; s.c. 50 μg/kg, 4 hr) was 25.0% and 16.7% and 29.1% and the “Phenotype Gr-1 Low” value (peripheral blood cells; s.c. 50 μg/kg, 4 hr) was 6.2% and 7.6% and 5.3%. The “Phenotype CD19+” value (peripheral blood cells; s.c. 250 μg/kg, 1 hr) was 14.8% and 4.8% and 14.5%, the “Phenotype Gr-1 High” value (peripheral blood cells; s.c. 250 μg/kg, 1 hr) was 55.2% and 18.7% and 6.8% and the “Phenotype Gr-1 Low” value (peripheral blood cells; s.c. 250 μg/kg, 1 hr) was 3.5% and 2.1% and 2.4%. The “Phenotype CD19+” value (peripheral blood cells; s.c. 250 μg/kg, 4 hr) was 46.7% and 48.5% and 46.6%, the “Phenotype Gr-1 High” value (peripheral blood cells; s.c. 250 μg/kg, 4 hr) was 16.1% and 12.9% and 11.7% and the “Phenotype Gr-1 Low” value (peripheral blood cells; s.c. 250 μg/kg, 4 hr) was 5.1% and 5.5% and 6.6%. For the same sequence, the “mobilization of lineage negative progenitors” value (peripheral blood cells; s.c. 50 or 250 μg/kg, 30 min and 1 hr) was “did not have such an effect”.
